Test results taken from patent US8114880B2, “Piperidine or piperazine substituted tetrahydro-naphthalene-1-carboxylic acid MTP inhibiting compounds” (Janssen Pharmaceutica N.V., priority 2006, dated 2012).

molecular target: MTP (Homo sapiens, UniProt P55157); assay: MTP assay (triglyceride transfer from donor to acceptor vesicles); assay type: biochemical; conditions: MTP activity, percent triglyceride transfer from donor to acceptor vesicles, 37° C.
Experimental: MTP activity was measured using an assay similar to one described by J. R. Wetterau and D. B. Zilversmit in Chemistry and Physics of Lipids, 38, 205-222 (1985). To prepare the donor and acceptor vesicles, the appropriate lipids in chloroform were put into a glass test tube and dried under a stream of nitrogen. A buffer containing 15 mM Tris-HCl pH 7.5, 1 mM EDTA, 40 mM NaCl, 0.02% NaN3 (assay buffer) was added to the dried lipid. The mixture was vortexed briefly and the lipids were then allowed to hydrate for 20 minutes on ice. Vesicles were then prepared by bath sonication (Branson 2200) at room temperature for maximum 15 minutes. Butylated hydroxytoluene was included in all vesicle preparations at a concentration of 0.1%. The lipid transfer assay mixture contained donor vesicles (40 nmol phosphatidylcholine, 7.5 mol % of cardiolipin and 0.25 mol % glycerol tri [1-^14C]-oleate), acceptor vesicles (240 nmol phosphatidylcholine) and 5 mg BSA in a total volume of 675 μl in a 1.5 ml microcentrifuge tube. Test compounds were added dissolved in DMSO (0.13% final concentration). After 5 minutes of pre-incubation at 37° C., the reaction was started by the addition of MTP in 100 μl dialysis buffer. The reaction was stopped by the addition of 400 μl DEAE-52 cellulose pre-equilibrated in 15 mM Tris-HCl pH 7.5, 1 mM EDTA, 0.02% NaN3 (1:1, vol/vol). The mixture was agitated for 4 minutes and centrifuged for 2 minutes at maximum speed in an Eppendorf centrifuge (4° C.) to pellet the DEAE-52-bound donor vesicles. An aliquot of the supernatant containing the acceptor liposomes was counted and the [^14C]-counts were used to calculate the percent triglyceride transfer from donor to acceptor vesicles.

MTP, sequence (P55157 19-894, species assumed): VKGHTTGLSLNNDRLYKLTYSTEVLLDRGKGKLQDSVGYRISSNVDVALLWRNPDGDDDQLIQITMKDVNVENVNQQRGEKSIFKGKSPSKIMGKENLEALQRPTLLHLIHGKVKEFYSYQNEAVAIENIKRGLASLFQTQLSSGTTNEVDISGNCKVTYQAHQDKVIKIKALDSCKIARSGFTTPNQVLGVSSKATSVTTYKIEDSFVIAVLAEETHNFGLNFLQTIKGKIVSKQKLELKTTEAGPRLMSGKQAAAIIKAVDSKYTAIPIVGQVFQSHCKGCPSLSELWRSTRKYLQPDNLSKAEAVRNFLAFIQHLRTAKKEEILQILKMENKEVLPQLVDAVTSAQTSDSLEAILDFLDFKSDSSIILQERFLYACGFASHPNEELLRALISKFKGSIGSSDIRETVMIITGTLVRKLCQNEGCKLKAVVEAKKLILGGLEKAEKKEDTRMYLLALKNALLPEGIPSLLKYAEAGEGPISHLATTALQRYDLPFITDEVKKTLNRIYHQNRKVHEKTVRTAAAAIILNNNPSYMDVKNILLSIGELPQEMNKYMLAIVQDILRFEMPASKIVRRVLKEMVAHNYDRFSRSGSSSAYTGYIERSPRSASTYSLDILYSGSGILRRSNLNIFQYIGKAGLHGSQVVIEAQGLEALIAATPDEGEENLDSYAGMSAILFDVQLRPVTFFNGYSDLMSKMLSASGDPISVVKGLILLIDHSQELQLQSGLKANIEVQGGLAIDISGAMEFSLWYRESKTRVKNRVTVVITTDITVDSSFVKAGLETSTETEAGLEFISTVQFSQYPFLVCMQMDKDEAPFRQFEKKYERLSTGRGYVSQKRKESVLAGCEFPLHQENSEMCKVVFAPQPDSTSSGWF
MTP, sequence (P07237 18-508 partner, species assumed): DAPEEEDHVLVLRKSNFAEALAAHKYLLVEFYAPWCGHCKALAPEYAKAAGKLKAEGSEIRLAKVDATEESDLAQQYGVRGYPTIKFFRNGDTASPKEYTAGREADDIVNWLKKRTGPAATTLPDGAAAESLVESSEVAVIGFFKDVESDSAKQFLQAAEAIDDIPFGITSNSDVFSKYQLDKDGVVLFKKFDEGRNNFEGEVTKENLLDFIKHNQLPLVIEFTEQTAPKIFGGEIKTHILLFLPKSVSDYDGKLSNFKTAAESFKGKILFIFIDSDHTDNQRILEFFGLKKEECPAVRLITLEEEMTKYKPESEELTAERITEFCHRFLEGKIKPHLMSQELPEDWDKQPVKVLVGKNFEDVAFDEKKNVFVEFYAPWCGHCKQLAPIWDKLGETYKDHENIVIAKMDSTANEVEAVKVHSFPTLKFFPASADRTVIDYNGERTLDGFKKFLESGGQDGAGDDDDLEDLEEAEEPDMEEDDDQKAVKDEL

Point of comparison: `CCOC(=O)[C@H](C)NC(=O)[C@@]1(c2ccccc2)CC[C@H](C(=O)N2CCC(NC(=O)c3cccn(C)c3=O)CC2)c2ccccc21` [Co. No. 135], IC50 1340 nM. Against it:
- COc1ccccc1C(=O)NC1CCN(C(=O)[C@H]2CC[C@@](C(=O)N[C@@H](Cc3c[nH]c4ccccc34)C(=O)O)(c3ccccc3)c3ccccc32)CC1 [Co. No. 127] — higher, > 10000 nM
- COC(=O)[C@]1(c2ccccc2)CC[C@@H](C(=O)N2CCC(NC(=O)c3cc(S(N)(=O)=O)ccc3OC)CC2)c2ccccc21 [Co. No. 52] — 2.1-fold lower, 627 nM
- COC(=O)[C@@H](CCCCNC(=O)OC(C)(C)C)NC(=O)[C@@]1(c2ccccc2)CC[C@H](C(=O)N2CCC(NC(=O)c3cccn(C)c3=O)CC2)c2ccccc21 [Co. No. 237] — 5.7-fold lower, 234 nM
- CCOC(=O)C[C@H](NC(=O)[C@@]1(c2ccccc2)CC[C@H](C(=O)N2CCC(NC(=O)c3cccn(C)c3=O)CC2)c2ccccc21)C(=O)OCC [Co. No. 143] — within 1.5-fold, 1920 nM
- Cn1cccc(C(=O)NC2CCN(C(=O)[C@H]3CC[C@@](C(=O)N4C[C@H](O)C[C@H]4C(=O)O)(c4ccccc4)c4ccccc43)CC2)c1=O [Co. No. 192] — higher, > 10000 nM
- COc1ccccc1C(=O)NC1CCN(C(=O)[C@H]2CC[C@@](C(=O)N[C@@H](C(=O)OC(C)(C)C)c3ccccc3)(c3ccccc3)c3ccccc32)CC1 [Co. No. 95] — 9.6-fold lower, 140 nM
- COc1ccccc1C(=O)NC1CCN(C(=O)[C@H]2CC[C@@](C(=O)N[C@@H](C)C(=O)OC(C)(C)C)(c3ccccc3)c3ccccc32)CC1 [Co. No. 101] — 320-fold lower, 4.2 nM
- CC(C)[C@H](NC(=O)[C@@]1(c2ccccc2)CC[C@H](C(=O)N2CCC(NC(=O)c3cccn(C)c3=O)CC2)c2ccccc21)C(=O)OC(C)(C)C [Co. No. 165] — 2.6-fold lower, 506 nM
- Cn1cccc(C(=O)NC2CCN(C(=O)C3CC[C@@](C(=O)NCC(=O)OC(C)(C)C)(c4ccccc4)c4ccccc43)CC2)c1=O (stereo partly shown) [Co. No. 160] — 3.7-fold lower, 366 nM
- COc1ccccc1C(=O)NC1CCN(C(=O)[C@H]2CC[C@@](C(=O)N[C@H](C)C(=O)O)(c3ccccc3)c3ccccc32)CC1 [Co. No. 97] — 3.1-fold higher, 4120 nM
- CC(C)C[C@H](NC(=O)[C@@]1(c2ccccc2)CC[C@H](C(=O)N2CCC(NC(=O)c3cccn(C)c3=O)CC2)c2ccccc21)C(=O)O [Co. No. 189] — higher, > 10000 nM
- CCOC(=O)[C@]1(c2ccccc2)CC[C@H](C(=O)N2CCN(C(=O)c3ccccc3)CC2)c2ccccc21 [Co. No. 29] — 2.5-fold higher, 3340 nM
- CC(C)[C@H](NC(=O)[C@@]1(c2ccccc2)CC[C@H](C(=O)N2CCC(NC(=O)c3cccn(C)c3=O)CC2)c2ccccc21)C(=O)O [Co. No. 187] — higher, > 10000 nM
- Cn1cccc(C(=O)NC2CCN(C(=O)[C@H]3CC[C@@](C(=O)N4CCC[C@@H]4C(=O)OC(C)(C)C)(c4ccccc4)c4ccccc43)CC2)c1=O [Co. No. 174] — 2-fold higher, 2730 nM
- CCNC(=O)[C@]1(c2ccccc2)CC[C@@H](CN2CCC(NC(=O)c3ccccc3)CC2)c2ccccc21 [Co. No. 17] — 4.8-fold lower, 277 nM
- CCOC(=O)C(Cc1c[nH]c2ccccc12)NC(=O)[C@@]1(c2ccccc2)CC[C@H](C(=O)N2CCC(NC(=O)c3cccn(C)c3=O)CC2)c2ccccc21 (stereo partly shown) [Co. No. 157] — within 1.5-fold, 1650 nM
- COc1ccccc1C(=O)NC1CCN(C(=O)[C@H]2CC[C@@](C(=O)N3CCC[C@@H]3C(=O)O)(c3ccccc3)c3ccccc32)CC1 [Co. No. 98] — 3.5-fold higher, 4750 nM
- COc1ccccc1C(=O)NC1CCN(C(=O)[C@H]2CC[C@@](C(=O)N[C@@H](C(=O)O)c3ccccc3)(c3ccccc3)c3ccccc32)CC1 [Co. No. 99] — higher, > 10000 nM
- CCOC(=O)[C@]1(c2ccccc2)CC[C@H](C(=O)N2CCN(C(=O)c3ccccc3OC)CC2)c2ccccc21 [Co. No. 30] — 2.2-fold lower, 601 nM
- COC(=O)CC[C@H](NC(=O)[C@@]1(c2ccccc2)CC[C@H](C(=O)N2CCC(NC(=O)c3cccn(C)c3=O)CC2)c2ccccc21)C(=O)OC [Co. No. 145] — 4-fold higher, 5380 nM
- CCOC(=O)[C@@H](NC(=O)[C@@]1(c2ccccc2)CC[C@H](C(=O)N2CCC(NC(=O)c3cccn(C)c3=O)CC2)c2ccccc21)C(C)C [Co. No. 139] — 1.6-fold lower, 826 nM
- Cn1cccc(C(=O)NC2CCN(C(=O)[C@H]3CC[C@@](C(=O)NC(CCCCN)C(=O)O)(c4ccccc4)c4ccccc43)CC2)c1=O (stereo partly shown) [Co. No. 190] — higher, > 10000 nM
- COc1ccccc1C(=O)NC1CCN(C(=O)[C@H]2CC[C@@](C(=O)N3CCCC3C(=O)OC(C)(C)C)(c3ccccc3)c3ccccc32)CC1 (stereo partly shown) [Co. No. 94] — 6.4-fold lower, 210 nM
- CCOC(=O)[C@H](CCCCNC(=O)OC(C)C)NC(=O)[C@@]1(c2ccccc2)CC[C@H](C(=O)N2CCC(NC(=O)c3cccn(C)c3=O)CC2)c2ccccc21 [Co. No. 234] — higher, > 10000 nM
- COc1ccccc1C(=O)NC1CCN(C(=O)[C@H]2CC[C@@](C(=O)N3CCC[C@H]3C(=O)O)(c3ccccc3)c3ccccc32)CC1 [Co. No. 123] — 2.9-fold higher, 3820 nM
- Cn1cccc(C(=O)NC2CCN(C(=O)[C@H]3CC[C@@](C(=O)N4CCC[C@H]4C(=O)OC(C)(C)C)(c4ccccc4)c4ccccc43)CC2)c1=O [Co. No. 173] — 2.5-fold higher, 3300 nM
- CCOC(=O)[C@@H](C)NC(=O)[C@@]1(c2ccccc2)CC[C@H](C(=O)N2CCC(NC(=O)c3cccn(C)c3=O)CC2)c2ccccc21 [Co. No. 136] — within 1.5-fold, 1090 nM
- Cn1cccc(C(=O)NC2CCN(C(=O)[C@H]3CC[C@@](C(=O)N[C@H](C(=O)OC(C)(C)C)c4ccccc4)(c4ccccc4)c4ccccc43)CC2)c1=O [Co. No. 177] — within 1.5-fold, 1620 nM
- CCOC(=O)C(Cc1ccc(O)cc1)NC(=O)[C@@]1(c2ccccc2)CC[C@H](C(=O)N2CCC(NC(=O)c3cccn(C)c3=O)CC2)c2ccccc21 (stereo partly shown) [Co. No. 156] — within 1.5-fold, 1530 nM
- CC(C)[C@@H](NC(=O)[C@@]1(c2ccccc2)CC[C@H](C(=O)N2CCC(NC(=O)c3cccn(C)c3=O)CC2)c2ccccc21)C(=O)OC(C)(C)C [Co. No. 166] — 1.8-fold lower, 755 nM
- COc1ccccc1C(=O)NC1CCN(C(=O)[C@H]2CC[C@@](C(=O)N(C)CC(=O)OC(C)(C)C)(c3ccccc3)c3ccccc32)CC1 [Co. No. 87] — 110-fold lower, 11.7 nM
- C[C@@H](NC(=O)[C@@]1(c2ccccc2)CC[C@H](C(=O)N2CCC(NC(=O)c3cccn(C)c3=O)CC2)c2ccccc21)C(=O)O [Co. No. 184] — higher, > 10000 nM
- COC(=O)[C@]1(c2ccccc2)CC[C@@H](C(=O)N2CCC(NC(=O)c3ccccc3OC)CC2)c2ccccc21 [Co. No. 60] — 530-fold lower, 2.51 nM
- COc1ccccc1C(=O)NC1CCN(C(=O)[C@H]2CC[C@@](C(=O)N[C@@H](CCCCN)C(=O)O)(c3ccccc3)c3ccccc32)CC1 [Co. No. 132] — 3.8-fold lower, 355 nM
- Cn1cccc(C(=O)NC2CCN(C(=O)[C@H]3CC[C@@](C(=O)NCC(=O)O)(c4ccccc4)c4ccccc43)CC2)c1=O [Co. No. 182] — higher, > 10000 nM
- COc1ccccc1C(=O)NC1CCN(C(=O)[C@H]2CC[C@@](C(=O)N[C@@H](CC(N)=O)C(=O)O)(c3ccccc3)c3ccccc32)CC1 [Co. No. 128] — higher, > 10000 nM
- COc1ccccc1C(=O)NC1CCN(C(=O)[C@H]2CC[C@@](C(=O)N[C@@H](COC(C)(C)C)C(=O)O)(c3ccccc3)c3ccccc32)CC1 [Co. No. 120] — higher, > 10000 nM
- COC(=O)CCCCCNC(=O)[C@@]1(c2ccccc2)CC[C@H](C(=O)N2CCC(NC(=O)c3cccn(C)c3=O)CC2)c2ccccc21 [Co. No. 228] — 4.4-fold lower, 307 nM
- C[C@H](NC(=O)[C@@]1(c2ccccc2)CC[C@H](C(=O)N2CCC(NC(=O)c3cccn(C)c3=O)CC2)c2ccccc21)C(=O)OC(C)(C)C [Co. No. 161] — 2.9-fold lower, 458 nM
- COc1ccccc1C(=O)NC1CCN(C(=O)[C@H]2CC[C@@](C(=O)N[C@H](Cc3ccccc3)C(=O)O)(c3ccccc3)c3ccccc32)CC1 [Co. No. 100] — 4.5-fold higher, 6050 nM
- COc1ccccc1C(=O)NC1CCN(C(=O)[C@H]2CC[C@@](C(=O)N[C@@H](CC(N)=O)C(=O)OC(C)(C)C)(c3ccccc3)c3ccccc32)CC1 [Co. No. 115] — 4.5-fold lower, 301 nM
- Cn1cccc(C(=O)NC2CCN(C(=O)[C@H]3CC[C@@](C(=O)NCCC(=O)O)(c4ccccc4)c4ccccc43)CC2)c1=O [Co. No. 186] — higher, > 10000 nM
- COc1ccccc1C(=O)NC1CCN(C(=O)[C@H]2CC[C@@](C(=O)N[C@@H](Cc3ccccc3)C(=O)O)(c3ccccc3)c3ccccc32)CC1 [Co. No. 125] — 6.4-fold higher, 8610 nM
- COc1ccccc1C(=O)NC1CCN(C(=O)[C@H]2CC[C@@](C(=O)N3C[C@H](OC(C)(C)C)C[C@H]3C(=O)OC(C)(C)C)(c3ccccc3)c3ccccc32)CC1 [Co. No. 91] — not separable, > 100 nM
- CCOC(=O)[C@H](NC(=O)[C@@]1(c2ccccc2)CC[C@H](C(=O)N2CCC(NC(=O)c3cccn(C)c3=O)CC2)c2ccccc21)C(C)C [Co. No. 140] — within 1.5-fold, 1090 nM
- COc1ccccc1C(=O)NC1CCN(C(=O)[C@H]2CC[C@@](C(=O)N3C[C@H](O)C[C@H]3C(=O)O)(c3ccccc3)c3ccccc32)CC1 [Co. No. 92] — higher, > 10000 nM
- CCOC(=O)[C@@H]1CCCN1C(=O)[C@@]1(c2ccccc2)CC[C@H](C(=O)N2CCC(NC(=O)c3cccn(C)c3=O)CC2)c2ccccc21 [Co. No. 149] — higher, > 10000 nM
- Cn1cccc(C(=O)NC2CCN(C(=O)[C@H]3CC[C@@](C(=O)N[C@@H](COC(C)(C)C)C(=O)OC(C)(C)C)(c4ccccc4)c4ccccc43)CC2)c1=O [Co. No. 168] — 1.9-fold lower, 697 nM
